Laboratory results published in paper PMC4351869 (Journal of neuro-oncology, 2011).

Assays:
recurrent glioblastoma = test: Phase II trial NABTC 03-02, progression free survival; format: in vivo, patients; conditions: 2000 mg i.v. twice weekly after resection
[1] = Treatment-related toxicity in the phase II trial; format: in vivo, patients
[2] = Tumor tissue concentrations of cilengitide at resection, HPLC-MS/MS; format: in vivo, patients; conditions: human, iv
clinical = conditions: human, in vivo, iv

SMILES: CC(C)[C@H]1C(=O)N[C@@H](CCCNC(=N)N)C(=O)NCC(=O)N[C@@H](CC(=O)O)C(=O)N[C@H](Cc2ccccc2)C(=O)N1C [Cilengitide]
- 6-month PFS rate (recurrent glioblastoma; 26 patients evaluable for efficacy): 12%
- median PFS (recurrent glioblastoma; Kaplan-Meier, 95% confidence interval 4–16 weeks): 8 weeks
- tolerability ([1]; 30 patients, 500 or 2000 mg before surgery, 2000 mg i.v. twice weekly after): very well tolerated
- dose reductions for toxicity ([1]; in vivo): no dose reductions for toxicity
- treatment related deaths ([1]; in vivo): no treatment related deaths
- number of grade 3–4 toxicities ([1]; mainly lymphopenia, likely related to prior cytotoxic chemotherapy): 9
- tissue level at time at 24 h ([2]; 500 mg): 919 ng/g
- tissue level at time at 24 h ([2]; 2000 mg): 1410 ng/g
- level at 24 h (clinical; 500 mg): 333 ng/mL
- level at 24 h (clinical; 2000 mg): 386 ng/mL
